{"source": "the NIST ThermoML archive (doi:10.1016/j.tca.2013.09.034)", "experiment": "mn = molality of the nth substance listed, in mol/kg", "conditions": "101 kPa, Liquid; for speed of sound: Sing-around technique in a fixed-path interferometer; for mass density: Vibrating tube method", "note": "Numbers after ± are expanded uncertainties.", "data": [{"molecule": "CCCCn1cc[n+](C)c1C.[Cl-]", "note": "[1-butyl-2,3-dimethylimidazolium chloride] + O", "values": [{"measurement": "speed of sound", "setting": "288.15 K, m1 = 0.0354", "result": "1471.7 ± 1.4", "unit": "m/s"}, {"measurement": "speed of sound", "setting": "288.15 K, m1 = 0.0466", "result": "1480.1 ± 1.4", "unit": "m/s"}, {"measurement": "speed of sound", "setting": "288.15 K, m1 = 0.0575", "result": "1484.9 ± 1.4", "unit": "m/s"}, {"measurement": "speed of sound", "setting": "288.15 K, m1 = 0.0702", "result": "1489.8 ± 1.4", "unit": "m/s"}, {"measurement": "speed of sound", "setting": "288.15 K, m1 = 0.0932", "result": "1498 ± 1.4", "unit": "m/s"}, {"measurement": "speed of sound", "setting": "288.15 K, m1 = 0.1164", "result": "1502.9 ± 1.4", "unit": "m/s"}, {"measurement": "speed of sound", "setting": "288.15 K, m1 = 0.1401", "result": "1505.3 ± 1.4", "unit": "m/s"}, {"measurement": "speed of sound", "setting": "288.15 K, m1 = 0.1635", "result": "1506.4 ± 1.4", "unit": "m/s"}, {"measurement": "speed of sound", "setting": "288.15 K, m1 = 0.1862", "result": "1507.5 ± 1.4", "unit": "m/s"}, {"measurement": "speed of sound", "setting": "288.15 K, m1 = 0.2082", "result": "1508.2 ± 1.4", "unit": "m/s"}, {"measurement": "speed of sound", "setting": "288.15 K, m1 = 0.2329", "result": "1509.1 ± 1.4", "unit": "m/s"}, {"measurement": "mass density", "setting": "288.15 K, m1 = 0.0354", "result": "999.41 ± 0.29", "unit": "kg/m3"}, {"measurement": "mass density", "setting": "288.15 K, m1 = 0.0466", "result": "999.559 ± 0.29", "unit": "kg/m3"}, {"measurement": "mass density", "setting": "288.15 K, m1 = 0.0575", "result": "999.712 ± 0.3", "unit": "kg/m3"}, {"measurement": "mass density", "setting": "288.15 K, m1 = 0.0702", "result": "999.936 ± 0.3", "unit": "kg/m3"}, {"measurement": "mass density", "setting": "288.15 K, m1 = 0.0932", "result": "1000.31 ± 0.3", "unit": "kg/m3"}, {"measurement": "mass density", "setting": "288.15 K, m1 = 0.1164", "result": "1000.68 ± 0.3", "unit": "kg/m3"}, {"measurement": "mass density", "setting": "288.15 K, m1 = 0.1401", "result": "1000.99 ± 0.3", "unit": "kg/m3"}, {"measurement": "mass density", "setting": "288.15 K, m1 = 0.1635", "result": "1001.1 ± 0.3", "unit": "kg/m3"}, {"measurement": "mass density", "setting": "288.15 K, m1 = 0.1862", "result": "1001.01 ± 0.3", "unit": "kg/m3"}, {"measurement": "mass density", "setting": "288.15 K, m1 = 0.2082", "result": "1000.78 ± 0.3", "unit": "kg/m3"}, {"measurement": "mass density", "setting": "288.15 K, m1 = 0.2329", "result": "1000.25 ± 0.3", "unit": "kg/m3"}, {"measurement": "speed of sound", "setting": "298.15 K, m1 = 0.0354", "result": "1502.4 ± 1.4", "unit": "m/s"}, {"measurement": "speed of sound", "setting": "298.15 K, m1 = 0.0466", "result": "1508.2 ± 1.4", "unit": "m/s"}, {"measurement": "speed of sound", "setting": "298.15 K, m1 = 0.0575", "result": "1512.1 ± 1.4", "unit": "m/s"}, {"measurement": "speed of sound", "setting": "298.15 K, m1 = 0.0702", "result": "1515.5 ± 1.4", "unit": "m/s"}, {"measurement": "speed of sound", "setting": "298.15 K, m1 = 0.0932", "result": "1520.7 ± 1.4", "unit": "m/s"}, {"measurement": "speed of sound", "setting": "298.15 K, m1 = 0.1164", "result": "1525.7 ± 1.4", "unit": "m/s"}, {"measurement": "speed of sound", "setting": "298.15 K, m1 = 0.1401", "result": "1527.9 ± 1.4", "unit": "m/s"}, {"measurement": "speed of sound", "setting": "298.15 K, m1 = 0.1635", "result": "1529.3 ± 1.4", "unit": "m/s"}, {"measurement": "speed of sound", "setting": "298.15 K, m1 = 0.1862", "result": "1530.5 ± 1.4", "unit": "m/s"}, {"measurement": "speed of sound", "setting": "298.15 K, m1 = 0.2082", "result": "1531.5 ± 1.4", "unit": "m/s"}, {"measurement": "speed of sound", "setting": "298.15 K, m1 = 0.2329", "result": "1532.1 ± 1.4", "unit": "m/s"}, {"measurement": "mass density", "setting": "298.15 K, m1 = 0.0354", "result": "997.296 ± 0.3", "unit": "kg/m3"}, {"measurement": "mass density", "setting": "298.15 K, m1 = 0.0466", "result": "997.434 ± 0.29", "unit": "kg/m3"}, {"measurement": "mass density", "setting": "298.15 K, m1 = 0.0575", "result": "997.614 ± 0.3", "unit": "kg/m3"}, {"measurement": "mass density", "setting": "298.15 K, m1 = 0.0702", "result": "997.784 ± 0.3", "unit": "kg/m3"}, {"measurement": "mass density", "setting": "298.15 K, m1 = 0.0932", "result": "998.103 ± 0.29", "unit": "kg/m3"}, {"measurement": "mass density", "setting": "298.15 K, m1 = 0.1164", "result": "998.419 ± 0.29", "unit": "kg/m3"}, {"measurement": "mass density", "setting": "298.15 K, m1 = 0.1401", "result": "998.698 ± 0.29", "unit": "kg/m3"}, {"measurement": "mass density", "setting": "298.15 K, m1 = 0.1635", "result": "998.836 ± 0.29", "unit": "kg/m3"}, {"measurement": "mass density", "setting": "298.15 K, m1 = 0.1862", "result": "998.743 ± 0.29", "unit": "kg/m3"}, {"measurement": "mass density", "setting": "298.15 K, m1 = 0.2082", "result": "998.556 ± 0.29", "unit": "kg/m3"}, {"measurement": "mass density", "setting": "298.15 K, m1 = 0.2329", "result": "998.134 ± 0.3", "unit": "kg/m3"}, {"measurement": "speed of sound", "setting": "308.15 K, m1 = 0.0354", "result": "1525.2 ± 1.4", "unit": "m/s"}, {"measurement": "speed of sound", "setting": "308.15 K, m1 = 0.0466", "result": "1530.4 ± 1.4", "unit": "m/s"}, {"measurement": "speed of sound", "setting": "308.15 K, m1 = 0.0575", "result": "1533 ± 1.4", "unit": "m/s"}, {"measurement": "speed of sound", "setting": "308.15 K, m1 = 0.0702", "result": "1535.5 ± 1.4", "unit": "m/s"}, {"measurement": "speed of sound", "setting": "308.15 K, m1 = 0.0932", "result": "1539.2 ± 1.4", "unit": "m/s"}, {"measurement": "speed of sound", "setting": "308.15 K, m1 = 0.1164", "result": "1543.5 ± 1.4", "unit": "m/s"}, {"measurement": "speed of sound", "setting": "308.15 K, m1 = 0.1401", "result": "1546.4 ± 1.4", "unit": "m/s"}, {"measurement": "speed of sound", "setting": "308.15 K, m1 = 0.1635", "result": "1547.4 ± 1.4", "unit": "m/s"}, {"measurement": "speed of sound", "setting": "308.15 K, m1 = 0.1862", "result": "1549.1 ± 1.4", "unit": "m/s"}, {"measurement": "speed of sound", "setting": "308.15 K, m1 = 0.2082", "result": "1550 ± 1.4", "unit": "m/s"}, {"measurement": "speed of sound", "setting": "308.15 K, m1 = 0.2329", "result": "1550.6 ± 1.4", "unit": "m/s"}, {"measurement": "mass density", "setting": "308.15 K, m1 = 0.0354", "result": "994.233 ± 0.29", "unit": "kg/m3"}, {"measurement": "mass density", "setting": "308.15 K, m1 = 0.0466", "result": "994.36 ± 0.29", "unit": "kg/m3"}, {"measurement": "mass density", "setting": "308.15 K, m1 = 0.0575", "result": "994.516 ± 0.29", "unit": "kg/m3"}, {"measurement": "mass density", "setting": "308.15 K, m1 = 0.0702", "result": "994.679 ± 0.29", "unit": "kg/m3"}, {"measurement": "mass density", "setting": "308.15 K, m1 = 0.0932", "result": "994.956 ± 0.29", "unit": "kg/m3"}, {"measurement": "mass density", "setting": "308.15 K, m1 = 0.1164", "result": "995.243 ± 0.29", "unit": "kg/m3"}, {"measurement": "mass density", "setting": "308.15 K, m1 = 0.1401", "result": "995.547 ± 0.29", "unit": "kg/m3"}, {"measurement": "mass density", "setting": "308.15 K, m1 = 0.1635", "result": "995.675 ± 0.29", "unit": "kg/m3"}, {"measurement": "mass density", "setting": "308.15 K, m1 = 0.1862", "result": "995.587 ± 0.29", "unit": "kg/m3"}, {"measurement": "mass density", "setting": "308.15 K, m1 = 0.2082", "result": "995.17 ± 0.3", "unit": "kg/m3"}, {"measurement": "mass density", "setting": "308.15 K, m1 = 0.2329", "result": "994.487 ± 0.3", "unit": "kg/m3"}]}]}
